Molecular target: T1, His6-DDR2 (cytoplasmic domain of human DDR2) (Homo sapiens, UniProt Q16832)
T1 construct: cytoplasmic domain of DDR2 having 6 histidines fused to the N-terminus thereof; made in house; host or cells: Sf9 insect cells (baculovirus, pFastBac-HT)
T1 sequence (Q16832 422-855 limits assumed): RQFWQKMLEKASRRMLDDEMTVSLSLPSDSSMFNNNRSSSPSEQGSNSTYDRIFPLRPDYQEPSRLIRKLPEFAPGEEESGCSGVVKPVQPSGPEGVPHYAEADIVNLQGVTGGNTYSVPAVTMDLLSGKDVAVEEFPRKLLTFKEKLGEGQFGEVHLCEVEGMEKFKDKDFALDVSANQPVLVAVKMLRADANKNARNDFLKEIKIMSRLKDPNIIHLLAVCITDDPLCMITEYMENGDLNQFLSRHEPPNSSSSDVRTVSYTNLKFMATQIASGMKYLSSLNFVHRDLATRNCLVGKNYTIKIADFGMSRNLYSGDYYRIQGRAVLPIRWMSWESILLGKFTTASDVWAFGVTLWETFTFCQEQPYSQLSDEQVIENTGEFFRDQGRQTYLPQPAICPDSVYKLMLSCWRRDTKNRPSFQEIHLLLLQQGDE
Experiment: Determination of DDR2 kinase inhibitory activity (His6-DDR2 tyrosine autophosphorylation, HTRF)
Format: biochemical
Settings: cell free, ATP, room temperature 10 minutes, HTRF detection; read-out: IC50 (concentration of the test substance required for inhibiting His6-DDR2 kinase activity by 50%)
Source text: A DNA fragment of cytoplasmic domain of human DDR2 (SEQ ID NO: 1) was isolated by PCR method (Expand High Fidelity (purchased from Roche)) according to a conventional technique using human brain cDNA library (purchased from Clontech) as a template and SEQ ID NO:3: 5′-[…]-3′ and SEQ ID NO:4: 5′-[…]-3′ (purchased from JBioS) as primers. This DNA fragment was inserted into a baculovirus transplacement vector (pFastBac™-HT (purchased from Invitrogen)) to obtain a recombinant construct. Insect cells (Spodoptera frugiperda 9 (Sf9 cells)) were transfected with this recombinant construct, thereby preparing a DDR2 recombinant baculovirus solution. For preparation of a recombinant baculovirus, we referred to a standard textbook (Bac-to-Bac Baculovirus Expression System (Invitrogen)).
The above-described DDR2 recombinant Baculovirus solution (0.07 mL) was added to Sf9 cells (7×10^7 cells) suspended in 2.5% FBS-containing SF-900II medium (purchased from Invitrogen) and shake-cultured at 27° C. for 72 hours. Then, this DDR2 recombinant Baculovirus-infected cells were subjected to centrifugation at 1,600 rpm at 4° C. for 6 minutes and the supernatant was removed. The precipitated infected cells were suspended in 10 mL of ice-cold PBS and centrifuged at 1,600 rpm at 4° C. for 6 minutes to remove the supernatant. The precipitated infected cells were suspended in 5 mL of ice-cold lysis buffer (50 mM Tris-HCl (pH 8.5), 5 mM 2-mercaptoethanol, 100 mM KCl, 1 mM PMSA, 1% (v/v) NP40), and centrifuged at 10,000 rpm at 4° C. for 10 minutes to obtain the supernatant.
This supernatant was added to a Ni-NTA agarose column (1.5 mL (purchased from Qiagen)) equilibrated with 5 mL of buffer A (20 mM Tris-HCl (pH 8.5), 5 mM 2-mercaptoethanol, 500 mM KCl, 20 mM imidazole, 10% (v/v) glycerol). This column was sequentially washed with 10 mL of buffer A, 2 mL of buffer B (20 mM Tris-HCl (pH8.5), 5 mM 2-mercaptoethanol, 1 M KCl, 10% (v/v) glycerol) and 2 mL of buffer A. Subsequently, 4 mL of buffer C (20 mM Tris-HCl (pH 8.5), 5 mM 2-mercaptoethanol, 100 mM KCl, 100 mM imidazole, 10% (v/v) glycerol) was added to obtain an eluate. This eluate was placed in a dialysis membrane (purchased from Spectrum Medical Industries) and dialyzed against 1 L of dialysis buffer (20 mM Tris-HCl, 10% (v/v) glycerol, 1 mM dithiothreitol, 0.1 mM Na3VO4, 0.1 mM EGTA) at 4° C. overnight. After dialysis, a portion of the eluate was subjected to SDS-PAGE and an amount of the recombinant protein detected at a molecular weight of about 40 kDa (His6-DDR2 (cytoplasmic domain of DDR2 having 6 histidines fused to the N-terminus thereof)) by Coomassie brilliant blue staining was quantitated using BSA as a standard substance.
To each well of a 96-well black half plate (purchased from Corning, Product No: 3694), 20 ng of His6-DDR2, 35 μL of 25 mM Hepes solution (pH 7.4) containing 14 mM MgCl2 and a test substance dissolved in dimethylsulfoxide (at 100-fold dilution with 1% BSA; 5 μL) were added to a total amount of 40 μL. To this, […] of 50 μM ATP (purchased with Sigma) diluted with 25 mM Hepes solution was added and incubated at room temperature for 10 minutes. Thereafter, 10 μL of 50 mM EDTA (pH 8.0) (purchased from Wako Pure Chemical Industries) was added to terminate the kinase reaction.
Tyrosine-phosphorylated DDR2 was detected using homogeneous time resolved fluorescence (HTRF) technique (Analytical Biochemistry, 269, 94-104, 1999). Specifically, to each well of the reaction solutions mentioned above, 20 μL of 25 mM Hepes solution containing 1 M KF, 4.75 ng of europium cryptate-labeled anti-phosphorylated tyrosine antibody (Eu(K)-PT66) and 100 ng of XL665-labeled anti-His antibody (XL665-Anti-His) was added. This reaction solution was incubated at room temperature overnight. Thereafter, fluorescence intensities of each well at 665 nm and 620 nm were measured under irradiation at an excitation wavelength of 337 nm using Discovery HTRF microplate analyzer (from Packard). […]

IC50 [nM] | Compound
7.2 | CCCCNC(=O)Nc1ccc(Oc2ccnc3cc(OC)c(OC)cc23)cc1 [Compound 2, N-n-butyl-N′-(4-((6,7-dimethoxy-4-quinolinyl)oxy)phenyl)urea]
1.3 | COc1cc2nccc(Oc3ccc(NC(=O)Nc4cccc(C(N)=O)c4)cc3)c2cc1OC [Compound 4, N-(3-carbamoylphenyl)-N′-(4-((6,7-dimethoxy-4-quinolinyl)oxy)phenyl)urea]
1.2 | COc1cc2nccc(Oc3ccc(NC(=O)Nc4cccc(SC)c4)cc3)c2cc1OC [Compound 5, N-(3-methylthiophenyl)-N′-(4-((6,7-dimethoxy-4-quinolinyl)oxy)phenyl)urea]
1.1 | COc1cc2nccc(Oc3ccc(NC(=O)Nc4cccc(S(C)(=O)=O)c4)cc3)c2cc1OC [Compound 6, N-(3-methylsulfonylphenyl)-N′-(4-((6,7-dimethoxy-4-quinolinyl)oxy)phenyl)urea]
1.9 | COc1cc2nccc(Oc3ccc4c(ccn4C(=O)Nc4ccc(F)cc4)c3)c2cc1OC [Compound 9, 6,7-dimethoxy-4-(5-(1-(4-fluorophenylcarbamoyl)-indolyl)oxy)quinoline]
0.91 | COc1cc2nccc(Oc3ccc(NC(=O)NC4CC4)c(Cl)c3)c2cc1C(N)=O [Compound 11, 4-(3-chloro-4-(cyclopropylaminocarbonyl)aminophenoxy)-7-methoxy-6-quinolinecarboxamide]
0.24 | CN1CCC(C(=O)Nc2cc(Oc3ccc4c(ccn4C(=O)Nc4ccccc4)c3)ccn2)CC1 [Compound 14, N1-phenyl-5-((2-(((1-methyl-4-piperidyl)carbonyl)amino)-4-pyridyl)oxy)-1H-1-indolecarboxamide]
20.8 | N#Cc1cc2c(Oc3ccc(Cl)c(NC(=O)NC4CC4)c3)ccnc2cc1OC[C@H](O)CN1CCCC1 [Compound 17]
428 | CCNC(=O)Nc1ccc(Oc2ccnc3cc(OC)c(C(=O)NCC)cc23)cc1Cl [Compound 20, N6-ethyl-4-(3-chloro-4-(((ethylamino)carbonyl)amino)phenoxy)-7-methoxy-6-quinolinecarboxamide]
28 | CCNC(=O)Nc1ccc(Oc2ccnc3cc(OC[C@H](O)CN(CC)CC)c(C(=O)NC)cc23)cc1Cl [Compound 21]
18 | CCNC(=O)Nc1ccc(Oc2ccnc3cc(OCC4CCN(C)CC4)c(C(=O)NC)cc23)cc1Cl [Compound 23, N6-methyl-4-(3-chloro-4-(((ethylamino)carbonyl)amino)phenoxy)-7-((1-methyl-4-piperidyl)methoxy)-6-quinolinecarboxamide]

Second part, the compound before the results:

Compound | IC50 [nM]
COc1ccc(NC(=O)Nc2ccc(Oc3ccnc4cc(OC)c(OC)cc34)cc2)cc1 [Compound 1, N-(4-methoxyphenyl)-N′-(4-((6,7-dimethoxy-4-quinolinyl)oxy)phenyl)urea] | 0.06
COCCOc1cc2nccc(Oc3ccc(NC(=O)Nc4cccc(S(C)(=O)=O)c4)c(F)c3)c2cc1C#N [Compound 7, N-(4-(6-cyano-7-(2-methoxyethoxy)-4-quinolyl)oxy-2-fluorophenyl)-N′-(3-methylsulfonylphenyl)urea] | 0.63
COc1cc2nccc(Oc3ccc(NC(=O)Nc4ccc(F)cc4)c(F)c3)c2cc1C(N)=O [Compound 8, 4-(4-((4-fluoroanilino)carbonyl)amino-3-fluorophenoxy)-7-methoxy-6-quinoline carboxamide] | 1.2
COc1cc2nccc(Oc3ccc(NC(=O)NCCCSC)c(F)c3)c2cc1C(N)=O [Compound 10, 4-(3-fluoro-4-((3-methylthiopropylamino)carbonyl)aminophenoxy)-7-methoxy-6-quinolinecarboxamide] | 1.5
COc1cc2nccc(Oc3ccc4c(ccn4C(=O)NC4CC4)c3)c2cc1C(N)=O [Compound 12, 6-carbamoyl-4-(1-cyclopropylcarbamoyl-1H-indole-5-yloxy)-7-methoxyquinoline] | 0.15
COCCNC(=O)c1cc2c(Oc3ccc(NC(=O)NC4CC4)c(Cl)c3)ccnc2cc1OC [Compound 13, N6-(2-methoxyethyl)-4-(3-chloro-4-(((cyclopropylamino)carbonyl)amino)phenoxy)-7-methoxy-6-quinolinecarboxamide] | 18
N#Cc1cc2c(Oc3ccc(Cl)c(NC(=O)NC4CC4)c3)ccnc2cc1OCCN1CCCC1 [Compound 15, N-(2-chloro-5-((6-cyano-7-(2-(1-pyrrolidino)ethoxy)-quinolyl)oxy)phenyl)-N′-cyclopropylurea] | 822
CNC(=O)Nc1cc(Oc2ccnc3cc(OC)c(C(=O)NC)cc23)ccc1Cl [Compound 16, N6-methyl-4-(4-chloro-3-(((methylamino)carbonyl)amino)phenoxy)-7-methoxy-6-quinolinecarboxamide] | 1890
CNC(=O)c1cc2c(Oc3ccc(NC(=O)NC4CC4)c(Cl)c3)ccnc2cc1OCCOC [Compound 18, N6-methyl-4-(3-chloro-4-(((cyclopropylamino)carbonyl)amino)phenoxy)-7-(2-methoxyethoxy)-6-quinolinecarboxamide] | 0.4
CCNC(=O)Nc1ccc(Oc2ccnc3cc(OC)c(C(=O)NC)cc23)cc1Cl [Compound 19, N6-methyl-4-(3-chloro-4-(((ethylamino)carbonyl)amino)phenoxy)-7-methoxy-6-quinolinecarboxamide] | 178
CCNC(=O)Nc1ccc(Oc2ccnc3cc(OC[C@H](O)CN4CCCC4)c(C(=O)NC)cc23)cc1Cl [Compound 22, N6-methyl-4-(3-chloro-4-(((ethylamino)carbonyl)amino)phenoxy)-7-((2R)-2-hydroxy-3-(1-pyrrolidino)propoxy)-6-quinolinecarboxamide] | 0.4

Source: patent US20090203693A1, “THERAPEUTIC AGENT FOR LIVER FIBROSIS” (Eisai R & D Management Co., Ltd., priority 2006, published 2009)
